Source: patent US7858612B2, “Therapeutic agent for inflammatory bowel diseases” (Meiji Seika Kaisha, Ltd., priority 2007, dated 2010)
Like-named read-outs stand apart in the source and are kept apart here. Marks after values point to notes of the source that are not given here.

How the values were obtained:
in vivo = test: in vivo; parameters: species or system SD rats; conditions: both sexes, SD, rat, po
Protocol: To 6 week-old male and female SD rats (purchased from
Charles River Laboratories Japan, Inc.) a solvent (hydroxymethyl cellulose) or Compound A (100, 300, 1000 mg/kg/day) was administered orally and repeatedly for 26 consecutive weeks (n=15).

[1] = cited from earlier work
DSS induced IBD model = test: 3% dextran sulfate sodium (DSS) induced acute rat IBD model (prophylactic effect); type: in vivo, Wistar rats; conditions: for inhibition at 10 mg/kg/day / inhibition at 1 mg/kg/day / inhibition at 100 mg/kg/day: Rattus norvegicus, po, read-out: Inhibition rate (%); for ulcer area: Table 2 (title: ulcer area reduction effect), twice a day; for ulcer area / Feces score: mean ± SE; for Feces score: Table 3 (effectiveness on feces score)
Excerpt: IBD was induced by freely allowing male 7 week-old Wistar rats (purchased from Japan SLC, Inc.) to ingest 3% DSS solution (n=8). In the period of 7 days after initiating DSS administration, soft feces and blood feces scores were observed according to the following basis, and the sum of the soft feces score and blood feces score was obtained as the feces score of the individual animal.
• Soft feces score (0 to 3) • [0: nothing abnormal detected (NAD), • 1: slightly soft, • 2: soft, • 3: diarrhea] • Blood feces score (0 to 3) • [0: nothing abnormal detected (NAD), • 1: blood in feces, • 2: bright-red blood adhered on feces, • 3: melena]
(§1) 1% Evans blue physiological saline was intravenously injected in an amount of 1 ml per rat 8 days after DSS exposure, and the animal was euthanized 30 minutes after that for excising the large intestine. After immobilizing the large intestine in the length of 7 to 8 cm from anus with 4% formalin buffer for 20 minutes, the intestine was longitudinally opened from the mesenterium side for photographing the rectal portion. Ulcer area was calculated by image analysis.
Compound A (10 mg/kg/day), or. sulfasalazine (100 mg/kg/day) or prednisolone (1 mg/kg/day) as a control compound was made into suspension in an agate mortar, which was orally administered twice a day at a dose of 5 ml/kg to each rat starting from a day before administration of DSS to a day before dissection. In this connection, 1% hydroxypropylmethyl cellulose solution (HPMC) was used as a solvent, which was administered at a dose of 5 ml/kg to the solvent treated group.

[2] = system: carrageenin induced paw edema in rats; test: Carrageenin induced paw edema in rats; type: in vivo, Wistar rats; conditions: for Volume of edema: 3 h after carrageenin, mean ± SE
Protocol: To right hind paws of male 7 week-old Wistar rats (purchased from Japan SLC, Inc.) 0.1 ml of 1% λ-carrageenin was subcutaneously injected to cause paw edema reaction (n=5). Compound A at doses of 1 to 25 mg/kg and indomethacin at a dose of 5 mg/kg were orally administered 15 and 60 minutes before administration of carrageenin, respectively.
Three hours after administration of carrageenin, when the paw edema reaction reached maximum, the effectiveness was evaluated from the volumes of the right hind paw edema.

[3] = Test for converting Compound A into Compound B (oral 14C Compound A, Radio-HPLC); type: in vivo, Wistar rats; conditions: for Detection in plasma: 15 minutes after oral 14C labeled Compound A 1 mg/kg, fasting rats; for Detection in bile: bile collected for 8 hours after oral 14C labeled Compound A 1 mg/kg; for Detection in urine: urine collected for 24 hours after oral 14C labeled Compound A 1 mg/kg
Protocol: Male 8 week-old Wistar rats (purchased from Japan SLC, Inc.) under fasting conditions were orally administered with ^14C labeled Compound A at a dose of 1 mg/kg, and the amounts of Compound B in plasma, urine and bile were determined by Radio-HPLC.

[4] = system: DSS induced rat IBD chronic model; test: DSS induced rat IBD chronic model (therapeutic effect); type: in vivo, Wistar rats; conditions: for Side effects such as inhibition of weight gain: rat, in vivo
Protocol: Colitis was induced by freely allowing male 7 week-old Wistar rats (purchased from Japan SLC, Inc.) to ingest 3% DSS solution for 3 days, and subsequently chronic IBD was induced by freely allowing to ingest 1% DSS solution starting from the 4th day of the test.
Compound A (2, 20 mg/kg/day), 5-aminosalicylic acid as a control (5-ASA: 200 mg/kg/day) and cyclosporine A (Cy A: 25 mg/kg/day) were administered to the animals starting from the 4th day of the test until the day of dissection (n=8 to 20).
The property of feces in individual animal was observed until the day before dissection, and the soft feces score and the blood feces score were determined according to the same basis as shown in Test Example 3 to obtain the sum of the soft feces score and blood feces score as the feces score.
as §1, with “Also, 1%” for “1%”, “on the day of dissection,” for “8 days after DSS exposure,”, “portion and measuring the rectum weight. The state and extent of eroded rectal portion were scored according to the following basis for making a macro observation score.” for “portion. Ulcer area was calculated by image analysis.”
Macro observation score (0-5)
[0: normal, • 1: erosion formation in narrow ranges, • 2: weak erosion formation, without bleeding, • 3: moderate erosion formation and weak bleeding in narrow ranges, • 4: strong erosion formation and bleeding in narrow ranges, • 5: strong erosion formation and bleeding in wide ranges]
A therapeutic effect of Compound B orally administered was examined in the same manner as in Test Example 4 except that Compound B (20 mg/kg/day) was used in place of Compound A (n=12).

TNBS induced IBD model [5] = test: Trinitrobenzene sulfonic acid (TNBS) induced rat IBD model (therapeutic effect); type: in vivo, SD rats; conditions: 5 mg/kg × 2 oral, from 2 days after TNBS
TNBS induced IBD model [6] = test: as above; type: in vivo, SD rats
Protocol: 8 week-old male SD rats (purchased from Charles River
Laboratories Japan, Inc.) were intrarectally treated with TNBS to induce enteritis, and divided into groups 2 days after the treatment with TNBS to initiate the administration of the drugs. A solvent, Compound A (2, 20, 50 mg/kg/day), or prednisolone (6 mg/kg/day) was orally administered twice a day, and the rats were subjected to autopsy 8 days after administration for determining the macro observation score. The evaluation of the score was conducted by the method described in Table 4 according to the judgment method by JOHN L. WALLACE et al. (Gastroenterology 1989; 96: 29-36).
Furthermore, the large intestine was cut to a length of 10 cm for measuring the wet weight of intestine.

splenocytes = test: Direct effect on the activation of T cells: cytokine production by ovalbumin-stimulated splenocytes (ELISA); type: cell-based, Balb/c mice; conditions: for Production of IFNγ / Production of IL-2 / Production of IL-5: culture for 24 hours
Protocol: 7 week-old male Balb/c mice (purchased from Japan SLC, Inc.) were sensitized with an aluminum hydroxide gel-ovalbumin suspension administered intraperitoneally or subcutaneously in both inguinal regions on the first and 14th days, and the spleen was excised on the 21st day for preparing a splenocyte suspension. After removal of erythrocytes, Compound B (10 μM) and ovalbumin were added to splenocytes suspended in a culture medium, and the mixture was cultured at 37° C. under a condition of 5% CO2.
IL-4 in the supernatant after culture for 6 hours, and IL-2, IL-5 and IFNγ in the supernatant after culture for 24 hours were quantitatively determined by ELISA (ELISA kit manufactured by ENDOGEN).

IBD = conditions: ulcerative colitis and Crohn's disease, literature; cited from earlier work
[7] = 20 mg/kg/day from 4th day, vs solvent treated group

In the case of `COc1cc2[nH]c(=O)c3nn(C(OC(=O)OC(C)C)C(C)C)nc3c(=O)c2cc1OC` (centres unmarked) [Compound A, 2-(1-Isopropoxycarbonyloxy-2-methylpropyl)-7,8-dimethoxy-4(5H),10-dioxo-2H-1,2,3-triazolo[4,5-c][1]benzoazepine], the NOAEL at 26 weeks (in vivo) is listed as ≥ 1000 mg/kg/day, the “Absorbability upon oral administration relative to Compound B” value [1] is listed as “seven times as large as that of Compound B” and the Side effects (DSS induced IBD model; 10 mg/kg/day oral) is listed as “without any side effects”. The inhibition at 10 mg/kg/day (DSS induced IBD model; Table 2 (ulcer area reduction effect), 10 mg/kg/day oral) was 36.4%, the inhibition at 10 mg/kg/day (DSS induced IBD model; Table 3 (feces score), 10 mg/kg/day oral) was 40.7% and the ulcer area (DSS induced IBD model; 10 mg/kg/day oral) was 291.3 ± 37.0. It also gave a Feces score (DSS induced IBD model; 10 mg/kg/day oral) of 2.00 ± 0.53, a Volume of edema ([2]; 1 mg/kg oral 15 min before carrageenin) of 0.87 ± 0.04 mL and a Volume of edema ([2]; 5 mg/kg oral 15 min before carrageenin) of 0.89 ± 0.04 mL. For the same molecule, the Volume of edema ([2]; 25 mg/kg oral 15 min before carrageenin) was 0.67 ± 0.05 mL, the “Inhibitory effect on paw edema” value ([2]; any doses (1 to 25 mg/kg oral)) was “no inhibitory effect” and the Detection in plasma [3] was “not detected”. The Detection in bile [3] was “not detected”, the “Metabolism of Compound A into Compound B on absorption” value ([3]; oral 1 mg/kg, rats) was “nearly all of Compound A was metabolized into Compound B” and the Detection in urine [3] was “not detected”. For the same molecule, the “Effect on the feces score on the day before dissection (FIG. 3)” value ([4]; 2 mg/kg/day from 4th day) was “significant (P<0.005) ameliorating effect”, the “Effect on the increase of rectum weight (FIG. 2)” value ([4]; 2 mg/kg/day from 4th day, vs solvent treated group) was “significant (P<0.005, P<0.05) ameliorating effect” and the “Effect on macro observation score (FIG. 4)” value ([4]; 2 mg/kg, P=0.0509 category test, P=0.1161 segmentation test) was “inhibitory tendency”. The “Effect on the feces score on the day before dissection (FIG. 3)” value ([4]; 20 mg/kg/day from 4th day) was “significant (P<0.005) ameliorating effect”, the “Effect on the increase of rectum weight (FIG. 2)” value [4, 7] was “significant (P<0.005, P<0.05) ameliorating effect” and the “Effect on the shortening of large intestine (FIG. 1)” value [4, 7] was “significant (P<0.01) ameliorating effect”. The “Effect on macro observation score (FIG. 4)” value ([4]; 20 mg/kg/day, P=0.0006 category test, P=0.0003 segmentation test) was “significant ameliorating effect”, the “Side effects such as inhibition of weight gain” value [4] was “not observed” and the Colonic ulceration score (TNBS induced IBD model [5]) was 3.5 ± 0.5. The Colonic ulceration score (TNBS induced IBD model [6]; 1 mg/kg × 2 oral, from 2 days after TNBS) was 3.5 ± 0.4, the Colonic ulceration score (TNBS induced IBD model [6]; 25 mg/kg × 2 oral, from 2 days after TNBS) was 3.3 ± 0.3 and the Weight gain (TNBS induced IBD model [6]; Compound A treated group (2 to 50 mg/kg/day oral)) was “significant inhibition of weight gain was not observed”. It also gave a Colonic ulceration score (TNBS induced IBD model [6]; Table 6 (title: colonic wet weight of large intestine, 10 cm), 25 mg/kg × 2 oral) of 1.20 ± 0.04.
For `C[C@]12C=CC(=O)C=C1CC[C@@H]1[C@@H]2[C@@H](O)C[C@@]2(C)[C@H]1CC[C@]2(O)C(=O)CO` [Prednisolone, prednisolone, reference compound], the “Weight gain (side effect)” value (DSS induced IBD model; 1 mg/kg/day oral) was “significant weight gain inhibitory effect”, the inhibition at 1 mg/kg/day (DSS induced IBD model; Table 2 (ulcer area reduction effect), 1 mg/kg/day oral) was 26.1% and the inhibition at 1 mg/kg/day (DSS induced IBD model; Table 3 (feces score), 1 mg/kg/day oral) was 40.7%. For the same molecule, the ulcer area (DSS induced IBD model; 1 mg/kg/day oral) was 337.5 ± 34.1, the Feces score (DSS induced IBD model; 1 mg/kg/day oral) was 2.00 ± 0.42 and the “Production of IFNγ” value (splenocytes; concentration not given) was “almost completely inhibited”. The “Production of IL-2” value (splenocytes; concentration not given) was “almost completely inhibited”, the “Production of IL-5” value (splenocytes; concentration not given) was “almost completely inhibited” and the Colonic ulceration score (TNBS induced IBD model [6]; 3 mg/kg × 2 oral, from 2 days after TNBS) was 3.0 ± 0.5^b. The Weight gain (TNBS induced IBD model [6]; 6 mg/kg/day oral) was “remarkable inhibition of (P<0.01) weight gain” and the Colonic ulceration score (TNBS induced IBD model [6]; Table 6 (title: colonic wet weight of large intestine, 10 cm), 3 mg/kg × 2 oral) was 1.05 ± 0.09^bb.
For `Nc1ccc(O)c(C(=O)O)c1` [Compound 5-ASA, 5-aminosalicylic acid, reference compound], the “Inhibitory effects in any evaluation items” value ([4]; 200 mg/kg/day from 4th day) was “significant inhibitory effects were not recognized”.
With `COc1ccc2c(c1)c(CC(=O)O)c(C)n2C(=O)c1ccc(Cl)cc1` [Indomethacin, indomethacin, reference compound] the “Inhibitory effect on paw edema” value ([2]; 5 mg/kg oral) was “significant (p<0.01) inhibitory effect” and the Volume of edema ([2]; 5 mg/kg oral 60 min before carrageenin) was 0.48 ± 0.04 mL.
In the case of `O=C(O)c1cc(/N=N/c2ccc(S(=O)(=O)Nc3ccccn3)cc2)ccc1O` [Sulfasalazine, sulfasalazine], the inhibition at 100 mg/kg/day (DSS induced IBD model; Table 2 (ulcer area reduction effect), 100 mg/kg/day oral) is reported as 8.2%, the inhibition at 100 mg/kg/day (DSS induced IBD model; Table 3 (feces score), 100 mg/kg/day oral) is reported as 22.2% and the Feces score (DSS induced IBD model; 100 mg/kg/day oral) is reported as 2.63 ± 0.50.
For `O=C([O-])c1cc(=O)c2c(OCC(O)COc3cccc4oc(C(=O)[O-])cc(=O)c34)cccc2o1.[Na+].[Na+]` [disodium cromoglycate], the “Effectiveness against IBD” value (IBD) is listed as “ineffective against IBD”.
With `COc1cc2[nH]c(=O)c3nn[nH]c3c(=O)c2cc1OC` [Compound B, 7,8-dimethoxy-4(5H),10-dioxo-1H-1,2,3-triazolo[4,5-c][1]benzoazepine] the Detection in plasma [3] was “detected as the main metabolite”, the Detection in bile [3] was “detected as the main metabolite” and the Detection in urine [3] was “detected as the main metabolite”. The “Production of IL-4” value (splenocytes; 10 μM, culture for 6 hours) was “did not inhibit”, the “Production of IFNγ” value (splenocytes; 10 μM) was “did not inhibit” and the “Production of IL-2” value (splenocytes; 10 μM) was “did not inhibit”. For the same molecule, the “Production of IL-5” value (splenocytes; 10 μM) was “did not inhibit”, the “Effect on macro observation score” value ([4]; 20 mg/kg/day oral) was “an inhibitory effect was recognized” and the “Feces score on the day before dissection” value ([4]; 20 mg/kg/day oral, n=12, solvent treated group 1.9±0.25, P<0.05) was 0.9±0.24. For the same molecule, the “Side effects such as inhibition of weight gain” value [4] was “not observed”.
